Read-outs that look alike come from different tables or passages of the source.
Columns and labels:
[1] = target: T1, HIV protease (Human immunodeficiency virus type 1 group M subtype B, UniProt P04585); assay: biochemical
T1 construct: fluorometric method for measurement of HIV-protease (HIV-PR) activity utilizing a synthetic peptide substrate
Method: Compositions to be subjected to enzyme assay are lyophilited and diluted in DMSO to 100-1000 μM. Compositions having apparent IC50 <1 μm are diluted to 100 μM.
The assay is a fluorometric method for measurement of HIV-protease (HIV-PR) activity utilizing a synthetic peptide substrate for HIV-PR based on that described by Matayoshi, E.D.; Wang, G.T.; Krafft, G.A.; and Erickson, J.W.; Science, 1990, 247, 954-958; and Wang, G.T.; Huffker, J.A.; Matayoshi, E.; and Krafft, G.A.; Tetrahedron Lett., 1990, 165 6493-6496.
Buffer: 0.1M sodium acetate
1.0 mM ethylenediaminetetraacetic acid (EDTA)
1.0 mM dithiothreitol (DTT)
10% dimethyl sulfoxide (DMSO)
1 mg/mL bovine serum albumin (BSA) adjusted to pH 4.7
1. Prepare a solution of 2 μM HIV Protease Substrate 1 in the Assay Buffer.
2. Dispense the substrate solution into UV-pass fluorescence cuvettes (1 cm pathlength).
3. Set the excitation and emission monochromators of the spectrofluorimeter to 340 nm and 490 nm, respectively. To obtain the same kinetic constants as reported, cuvettes should be held at 37° C. throughout the assay.
4. Begin each assay by adding a small amount (<3% of the final volume) of HIV-PR-containing solution diluted tin the Assay Buffer.
5. Measure the initial rate of cleavage of fluorogenic substrate by monitoring the increase in fluorescence signal at 490 nm for 5-8 min at 37° C.
(§1) The apparent IC50 and IC50 values reported below in Table 25 were determined using the assays of Example 34 and 35, respectively. The values are indicated as follows: +=10-50 μM, ++2-10 μM, and +++<2 μM.

[2] = system: HIV IIIB; assay: XTT cell culture assay, cells infected with HIV IIIB; format: cell-based; settings: Human immunodeficiency virus 1, IIIB, read-out: Cell Culture IC50
Method: The method of Weislow, O.S.; Kiser, R.; Fine, D.L.; Bader, J.; Shoemaker, R.H.; and Boyd, M.R.; I. Nat. Cancer Institute, 1989, 81(8) 577-586 was applied with the following minor modifications:. Infection of cells with HIV IIIB was performed without polybrene. Cells were distributed to Microtiter wells containing the compound of the invention 4 h after infection with HIV IIIB. 2×XTT was added at 5-6 days post infection. 20 μl 2% Triton X-100 was added 1 hour after XTT addition.
1. Add 4 ml of XTT (5 mg/ml) to 8 ml of Deficient RPMI medium (no phenol red, no serum). Mix briefly at 45° C. to dissolve XTT.
2. Add 800 μl of PMS (0.2 mg/ml) to XTT/RPMI mixture.
3. Remove […] of cell free media from each well of a 96 well plate and replace with 100 μl of the XTT/PMS mixture.
4. Incubate at 37° C. for 1.5-2 h.
5. Read absorbance at 450 nm. Absorbance values are directly proportional to cell viability.
as §1

[3] = HIV protease, fluorogenic peptide substrate, pH 4.7, 37° C., read-out: Apparent Enzyme IC50
[4] = XTT assay, HIV IIIB infected cells, XTT 5-6 days post infection

SMILES	IC50 [1, 3] [µM]	IC50 [2, 4] [µM]	also measured
[O-][S+]1CC(OCc2ccccc2)C(O)C(O)C(OCc2ccccc2)C1Cc1ccccc1 (centres unmarked) [107/3]	2 to 10	–	–
[O-][S+]1CC(OCc2ccccc2)C(O)C(O)C(OCc2ccccc2)C1Cc1ccccc1 (centres unmarked) [107/4]	2 to 10	10 to 50	–
N#Cc1ccccc1O[C@@H]1[C@H](O)[C@@H](O)[C@@H](Oc2ccccc2C#N)C[S@+]([O-])[C@@H]1Cc1ccccc1 [107/8]	10 to 50	–	–
N#Cc1ccc(O[C@@H]2[C@H](O)[C@@H](O)[C@@H](Oc3ccc(C#N)cc3)C[S@@+]([O-])[C@@H]2Cc2ccccc2)cc1 [107/13]	10 to 50	–	–
[O-][S+]1C(Cc2ccccc2)C(OCc2ccccc2)C(O)C(O)C(OCc2ccccc2)C1Cc1ccccc1 (centres unmarked) [108/17]	–	2 to 10	–
O=[N+]([O-])c1cccc(CO[C@@H]2[C@H](O)[C@@H](O)C(NCc3ccccc3)C(Cc3ccccc3)S(=O)(=O)[C@@H]2Cc2ccccc2)c1 (some centres unmarked) [108/31]	< 2	2 to 10	–
O=S1(=O)C(Cc2ccccc2)C(NCc2ccccc2)[C@H](O)[C@@H](O)[C@@H](OCc2ccccc2)[C@H]1Cc1ccccc1 (some centres unmarked) [108/34]	< 2	2 to 10	–
O=S1(=O)C(Cc2ccccc2)C(NCCCc2ccccc2)[C@H](O)[C@@H](O)[C@@H](OCc2ccccc2)[C@H]1Cc1ccccc1 (some centres unmarked) [108/35]	< 2	2 to 10	–
O=S1(=O)[C@H](Cc2ccccc2)[C@H](OCc2ccccn2)[C@H](O)[C@@H](O)[C@@H](OCc2ccccn2)[C@H]1Cc1ccccc1 [120/8]	< 2	2 to 10	–
O=S1(=O)[C@H](Cc2ccccc2)[C@H](OCc2ccccn2)[C@H](O)[C@@H](O)[C@@H](OCc2cccc[n+]2[O-])[C@H]1Cc1ccccc1 [120/9]	< 2	2 to 10	–
Cc1nc(COC2C(O)C(O)C(OCc3csc(C)n3)C(Cc3ccccc3)S(=O)(=O)C2Cc2ccccc2)cs1 (centres unmarked) [120/22]	–	10 to 50	–
O=S1(=O)C(Cc2ccccc2)C(OCc2cncs2)C(O)C(O)C(OCc2cncs2)C1Cc1ccccc1 (centres unmarked) [120/25]	–	< 2	–
Cc1cccc(COC2C(O)C(O)C(OCc3cccc(C)c3)C(Cc3ccccc3)S(=O)(=O)C2Cc2ccccc2)c1 (centres unmarked) [120/31]	–	< 2	–
COc1cccc(COC2C(O)C(O)C(OCc3cccc(OC)c3)C(Cc3ccccc3)S(=O)(=O)C2Cc2ccccc2)c1 (centres unmarked) [120/34]	–	< 2	–
O=[N+]([O-])c1cccc(COC2C(O)C(O)C(OCc3cccc([N+](=O)[O-])c3)C(Cc3ccccc3)[S+]([O-])C2Cc2ccccc2)c1 (centres unmarked) [120/44]	–	–	IC50 [2]: < 2 µM
O=[N+]([O-])c1cccc(COC2C(O)C(O)C(OCc3cccc([N+](=O)[O-])c3)C(Cc3ccccc3)S(=O)(=O)C2Cc2ccccc2)c1 (centres unmarked) [120/45]	–	–	IC50 [2]: < 2 µM
Nc1cccc(COC2C(O)C(O)C(OCc3cccc(N)c3)C(Cc3ccccc3)S(=O)(=O)C2Cc2ccccc2)c1 (centres unmarked) [120/46]	–	< 2	–
CN(C)c1nc(CO[C@@H]2[C@H](O)[C@@H](O)[C@@H](OCc3csc(N(C)C)n3)[C@@H](Cc3ccccc3)S(=O)(=O)[C@@H]2Cc2ccccc2)cs1 [125/14]	< 2	–	–
O=[N+]([O-])c1ccc(OC2C(O)C(O)C(Oc3ccc([N+](=O)[O-])cc3)C(Cc3ccccc3)S(=O)(=O)C2Cc2ccccc2)cc1 (centres unmarked) [125/17]	–	–	IC50 [2]: < 2 µM; IC50 [1]: < 2 µM
Cc1ccc(OC2C(O)C(O)C(Oc3ccc(C)cn3)C(Cc3ccccc3)S(=O)(=O)C2Cc2ccccc2)nc1 (centres unmarked) [125/21]	2 to 10	–	–
O=[N+]([O-])c1ccc(OC2C(O)C(O)C(Oc3ccc([N+](=O)[O-])c(C(F)(F)F)c3)C(Cc3ccccc3)S(=O)(=O)C2Cc2ccccc2)cc1C(F)(F)F (centres unmarked) [125/27]	–	–	IC50 [1]: < 2 µM
Nc1ccc(OC2C(O)C(O)C(Oc3ccc(N)c(C(F)(F)F)c3)C(Cc3ccccc3)S(=O)(=O)C2Cc2ccccc2)cc1C(F)(F)F (centres unmarked) [125/28]	< 2	< 2	–
Cc1cccc(O[C@@H]2[C@H](O)[C@@H](O)[C@@H](Oc3cccc(C)n3)[C@@H](Cc3ccccc3)S(=O)(=O)[C@@H]2Cc2ccccc2)n1 [128/31]	10 to 50	–	–
Cc1ccnc(O[C@@H]2[C@H](O)[C@@H](O)[C@@H](Oc3cc(C)ccn3)[C@@H](Cc3ccccc3)S(=O)(=O)[C@@H]2Cc2ccccc2)c1 [128/35]	10 to 50	–	–

— patent US5811450A, “Thiepane compounds” (Gilead Sciences, Inc., priority 1996, dated 1998)
